Reference: patent US9833445B2, “5-deutero-2,4-thiazolidinedione derivatives and compositions comprising and methods of using the same” (DeuteRx, LLC, priority 2013, dated 2017)

Assays:
[1] = In vitro stability (D/H exchange, enantiomerization, degradation) in CD-1 mouse plasma; type: in vitro ADME; details: 37° C.; for half-life: CD-1, mouse, plasma (K3EDTA), calculated half-life
Description: (§1) (+)-5-({p-[2-(5-ethylpyridin-2-yl)-2-oxoethoxy]phenyl}methyl)-1,3-thiazolidine-2,4-dione, (−)-5-({p-[2-(5-ethylpyridin-2-yl)-2-oxoethoxy]phenyl}methyl)-1,3-thiazolidine-2,4-dione, rac-5-({p-[2-(5-ethylpyridin-2-yl)-2-oxoethoxy]phenyl}methyl)-(5-^2H))-1,3-thiazolidine-2,4-dione (>98% deuterium at C-5 of the 1,3-thiazolidine-2,4-dione moiety; 50:50 racemic mixture of (+)- and (−)-deuterated enantiomers) were incubated in CD-1 mouse plasma (K3EDTA as anticoagulant) or human plasma (K3EDTA as anticoagulant) at 37° C. in duplicates. Aliquots (50 μL) were removed at t=0, 0.0833, 0.25, 0.5, 1, 2, 4, 8, and 16 hours and added to micro centrifuge tubes containing 10 μL of 5% w/v zinc sulfate heptahydrate in water. Samples were frozen and stored until the study was complete. After thawing on ice, 10 μL of internal standard (ISTD) spiking solution (d4-pioglitazone in acetonitrile/water 1:1) were added followed by 250 μL of methyl t-butyl ether (MTBE). A 100 μL aliquot of the organic layer was evaporated after homogeneization and reconstituted in 100 μL of 95:5 acetonitrile/0.1% formic acid in water (v/v).
(§2) The samples were analyzed semi-quantitatively by LC/MS-MS with elution on a chiral column (Daicel ChiralPak ID-3) for the separation of enantiomers (isocratic method of 5:95 v/v 0.1% formic acid in water and acetonitrile). Peak areas for the protonated and deuterated enantiomers were calculated and normalized to the area of the ISTD. Peak areas for the deuterated enantiomers (+)-5-({p-[2-(5-ethylpyridin-2-yl)-2-oxoethoxy]phenyl}methyl)-(5-2H)-1,3-thiazolidine-2,4-dione and (−)-5-({p-[2-(5-ethylpyridin-2-yl)-2-oxoethoxy]phenyl}methyl)-(5-^2H)-1,3-thiazolidine-2,4-dione were further corrected for the isotopic peak of the corresponding protonated enantiomer, (+)- and (−)-5-({p-[2-(5-ethylpyridin-2-yl)-2-oxoethoxy]phenyl}methyl)-1,3-thiazolidine-2,4-dione respectively, if present. Corrected data were analyzed and plotted using Microsoft Excel 2013 (Microsoft Corp, Redmond, Wash.) and the Excel Solver.
(§3) Scheme 3 illustrates the possible reactions in a solution of a deuterated racemate. The deuterium at the chiral center of both enantiomers, d+ and d−, can be depleted by D/H exchange to give both protonated enantiomers, h+ and h− with rate constants kD++, kD+−, kD−+, kD−. At the same time, the protonated enantiomers h+ and h−, can exchange, with enantiomerization rate constants k+− and k−+. All four compounds can also degrade with potentially different degradation rate constants kh+d, kh−d, kd+d, kd−d for enantiomers h+, h−, d+, and d−, respectively.
(§4) Human plasma stability data and mouse plasma stability data were analyzed independently. Concurrent analysis of the data for h+, h−, and deuterated racemate was performed. Calculated concentrations were obtained through numerical approximation of differential equations (1) and (2) for the stability studies of h+ and h- and equations (3) to (6) for the stability study of deuterated racemate (50:50 d+:d−) by the Euler method (equation (7)). The step between calculated time points was minimized in order to minimize the local error (proportional to the square of the step size) and the global error (proportional to the step size). […] Data analysis was performed in Microsoft Excel 2013, using the Solver Generalized Reduced Gradient Nonlinear method with central derivatives to minimize the sum of sums of weighted Δ^2, square of difference between ISTD-normalized experimental data and calculated value, divided by the calculated value.
(§5) [formula] [formula] [formula] [formula] where [h+], [h−], [d+], [d−] are the concentrations on both protonated and deuterated enantiomers, k+− and k−+ are the rate constants for the enantiomerization reactions h+ to h− and h− to h+ respectively, kD++, kD+−, kD−+, and kD− are the rate constants for the D/H exchange reactions d+ or d− to h+ or h−, and kd is the rate constant for the degradation of all four compounds. […]

[2] = In vitro stability (D/H exchange, enantiomerization, degradation) in human plasma; type: in vitro ADME; details: 37° C.; for half-life: human, plasma (K3EDTA), calculated half-life
Description: as §1, §2, §3, §4, §5

[3] = read-out: t1/2 degradation (converted)
[4] = read-out: t1/2 enantiomerization −+ (h− to h+) (converted)
[5] = read-out: t1/2 enantiomerization +− (h+ to h−) (converted)

Row | k d (rate constant, degradation; assumed equal for all four compounds) ([1]; fitted to Equations 1 to 6) [s⁻¹] | half-life [1, 3] [h] | k d (rate constant, degradation; assumed equal for all four compounds) ([2]; fitted to Equations 1 to 6) [s⁻¹] | half-life [2, 3] [h] | k −+ (rate constant, enantiomerization h− to h+) ([1]; fitted to Equations 1 to 6) [h⁻¹] | half-life [1, 4] [h] | k −+ (rate constant, enantiomerization h− to h+) ([2]; fitted to Equations 1 to 6) [h⁻¹] | half-life [2, 4] [h] | k +− (rate constant, enantiomerization h+ to h−) ([1]; fitted to Equations 1 to 6) [h⁻¹] | half-life [1, 5] [h] | k +− (rate constant, enantiomerization h+ to h−) ([2]; fitted to Equations 1 to 6) [h⁻¹] | half-life [2, 5] [h] | Compound
1 | 4.25e-06 | 45.4 | 1.05e-06 | 184 |  |  |  |  |  |  |  |  | [2H]C1(Cc2ccc(OCC(=O)c3ccc(CC)cn3)cc2)SC(=O)NC1=O (racemic) [d-rac, rac-5-({p-[2-(5-ethylpyridin-2-yl)-2-oxoethoxy]phenyl}methyl)-(5-^2H)-1,3-thiazolidine-2,4-dione]
2 |  |  |  |  | 0.594 | 1.2 | 0.359 | 1.9 |  |  |  |  | CCc1ccc(C(=O)COc2ccc(CC3SC(=O)NC3=O)cc2)nc1 (single isomer, unassigned; (-)) [h−, (−)-5-({p-[2-(5-ethylpyridin-2-yl)-2-oxoethoxy]phenyl}methyl)-1,3-thiazolidine-2,4-dione]
3 | 4.25e-06 | 45.4 | 1.05e-06 | 184 |  |  |  |  | 0.504 | 1.4 | 0.308 | 2.2 | CCc1ccc(C(=O)COc2ccc(CC3SC(=O)NC3=O)cc2)nc1 (single isomer, unassigned; (+)) [h+, (+)-5-({p-[2-(5-ethylpyridin-2-yl)-2-oxoethoxy]phenyl}methyl)-1,3-thiazolidine-2,4-dione]
